From patent US20100331203A1, “AROMATASE EXPRESSION PREDICTS SURVIVAL IN WOMEN WITH NON-SMALL CELL LUNG CANCER” (THE REGENTS OF THE UNIVERSITY OF CALIFORNIA, priority 2007, published 2010)
“Also recorded” adds a separate entry of the source.

Tests used:
NSCLC cells = conditions: cited from earlier work
human NSCLC xenograph = conditions: in vivo; cited from earlier work
A549 lung tumor cells = assay: A549 non-small cell lung tumor xenografts in ovariectomized female athymic mice; type: in vivo; conditions: daily subcutaneous treatment, 5 animals per group, P<0.001
Excerpt: FIG. 1. Growth-promoting effects of estrogen and aromatase substrate on non-small cell lung tumor xenografts in vivo. A549 lung tumor cells which express endogenous aromatase were implanted as subcutaneous xenografts in ovariectomized female athymic mice. Mice were then divided into 3 groups (5 animals per group). ▪ Animals were given daily subcutaneous treatments of the aromatase substrate androstenedione as before (see, e.g. Weinberg et al., Cancer Res 2005; 65:11287-91). […] Animals were given daily subcutaneous treatments of estradiol in a biodegradable binder as described (see, e.g. Pietras et al., Oncogene 1995; 10:2435-46). ▴ Control animals were supplemented with subcutaneous injection of vehicle alone.
In this study we examined aromatase, a key enzyme in the estrogen synthesis pathway. We hypothesized that expression of aromatase in lung cancer cells could result in a focal increase in estrogen levels and serve to promote tumor development and/or progression. […] To further assess estrogen signaling in NSCLC in vivo, we implanted A549 lung tumor cells which express endogenous aromatase in ovariectomized female athymic mice.
The protocol used for implantation of human lung tumor xenografts in nude mice was described previously (see, e.g. Weinberg et al., Cancer Res 2005; 65:11287-91; Pietras et al., Oncogene 1995; 10:2435-46). […]

[1] = exemestane cohort compared to women maintained on tamoxifen; cited from earlier work

In the case of `C[C@]12CC[C@@H]3c4ccc(O)cc4C[C@@H](CCCCCCCCC[S+]([O-])CCCC(F)(F)C(F)(F)F)[C@H]3[C@@H]1CC[C@@H]2O` (stereo partly shown) [Faslodex, fulvestrant], the “Effect on 17β-estradiol-induced mitogenesis and gene transcription in NSCLC cells” value (NSCLC cells; ER antagonist) is given as “inhibited” and the “Tumor formation in human NSCLC xenograph model” value (human NSCLC xenograph) is given as “inhibited”.
In the case of `C[C@]12CCC(=O)C=C1CC[C@@H]1[C@@H]2CC[C@]2(C)C(=O)CC[C@@H]12` [androstenedione], the “Growth of A549 tumors compared to control animals” value (A549 lung tumor cells) is reported as “significantly increased; also recorded: significantly enhanced tumor growth”.
In the case of `C[C@]12CC[C@@H]3c4ccc(O)cc4CC[C@H]3[C@@H]1CC[C@@H]2O` [estradiol, 17β-estradiol], the “Growth of A549 tumors compared to control animals” value (A549 lung tumor cells) is given as “significantly increased”, the “Gene transcription in NSCLC cells” value (NSCLC cells; in vitro and in vivo models) is given as “stimulates” and the “Mitogenic effect on NSCLC cells” value (NSCLC cells; in vitro and in vivo models) is given as “mitogenic”.
For `C=C1C[C@@H]2[C@H](CC[C@]3(C)C(=O)CC[C@@H]23)[C@@]2(C)C=CC(=O)C=C12` [exemestane], the “Subsequent development of primary lung cancer” value [1] is listed as “reduction”.
